39 compounds from PubChem BioAssay (NCI) can be followed below.

The structures appear in SMILES notation.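 Five concentrations, 48 hours, 96-well plates. At the GI50, growth is halved. At the TGI there is no net growth.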

In this experiment the test system is MDA-MB-468 breast. The experiment can be described thus: DTP human tumour cell line panel, 48 h.
Turning to `O=C1C(=O)c2ccccc2C(O)=C1CC=C(Cl)Cl`, the GI50 is 15.8 µM and the TGI turned out to be 59 µM.
For `Cc1cc2c(-c3ccc(NC(=O)[C@H](N)CC(C)(C)C)cc3C)ccnc2[nH]1`, in that order: 2.73 µM and 10.6 µM.
With `CN1CCN(c2ccc(NC3=C(Cl)C(=O)c4ncccc4C3=O)cc2C#N)CC1`, the 50% growth inhibitory concentration (GI50) was 0.414 µM and the concentration for total growth inhibition (TGI) was 1.9 µM.
As to `Cc1cc(C)cc(Nc2ccc([N+](=O)[O-])c(NCCN3CCOCC3)n2)c1`, the GI50 was 0.000419 µM.
`COc1cc(-c2cc(/C=C3\C(=O)Nc4ccccc43)[nH]n2)cc(OC)c1OC`: the GI50 was 2.88 µM and the TGI worked out at 13.4 µM.
For `C(=C\c1nccc2c1[nH]c1ccccc12)/c1ccccc1`, in that order: 2.04 µM and 7.91 µM.
Take `CNC(=O)OC1C(O[C@H]2C[C@H]3[C@@H]4CC=C5C[C@@H](O)CC[C@]5(C)[C@H]4CC[C@]3(C)[C@H]2[C@H](C)C(=O)CCC(C)C)OCC(O)C1OC1OCC(O)C(O)C1OC(=O)c1ccc(OC)cc1` (some centres not stated): the 50% growth inhibitory concentration (GI50) is 0.027 µM and the TGI is 2.96 µM.
For `CCCCCCCCCCCCCC(=O)C(C)N` (configuration not stated) the same measures were 3.31 µM and 9.51 µM.
For `Cc1nc2cc(Nc3nc(Nc4ccc(F)cc4)nc(N4CCN(C)CC4)n3)ccc2n1Cc1ccccc1`, in that order: 1.43 µM and 3.44 µM.
For `COc1ccc(/C=C/C(=O)c2cc3c(N)c(C(=O)Nc4ccccc4C)sc3nc2C)cc1` the same measures were 0.167 µM and greater than 50 µM.
Consider `C1=C(c2ccccc2)C(c2ccc(OCCN3CCCCC3)cc2)Oc2ccccc21` (configuration not stated), for which the GI50 was 1.54 µM and the TGI was found to be 3 µM.
Take `CC(C)(C)OC(=O)CN1CCc2c(sc3ncnc(N/N=C/c4cccc5ccccc45)c23)C1`: the GI50 was 3.9 µM and the total growth inhibition concentration (TGI) is 16.3 µM.
For `Cc1ccc(C2CC(c3ccc(Nc4nc(NCCO)nc(Nc5ccc(Cl)cc5)n4)cc3)=Nc3c(N)nc(N)nc3N2)cc1` (configuration not stated), in that order: 1.65 µM and 3.17 µM.
For `O=C(O)c1cc(Cc2ccc(O)c(C(=O)O)c2)ccc1O` (tested in a mixture with another compound) the same measures were 2.57 µM and 14.4 µM.
For `Cc1ccc2c(c1)O/C(=C\c1ccc([N+](=O)[O-])o1)C2=O`, in that order: 1.56 µM and 3.5 µM.
Turning to `COc1ccc(-c2nnc(N3CCN(C(=O)CN4CCN(c5ccc(Cl)cc5)CC4)CC3)nc2-c2ccc(OC)cc2)cc1`, the GI50 is 17.9 µM and the concentration for total growth inhibition (TGI) worked out at 48.3 µM.
For `C#Cc1cccc(Oc2ccc(NC(=O)CCl)cc2)c1` the same measures were 77.9 µM and greater than 82.5 µM.
In the case of `O=C(Nc1ccccc1O)c1ccc(CNC(=O)c2sccc2Nc2ccnc(C(F)(F)F)c2)cc1`, the GI50 is 2.01 µM and the total growth inhibition concentration (TGI) stood at 5.9 µM.
For `O=S(=O)(NCCNc1cc(-c2cn(-c3ccccc3)nc2-c2cccc(O)c2)ccn1)c1ccc(Cl)cc1` the same measures were 2.78 µM and 7.66 µM.
For `Cc1cc(C)n(C(=O)c2nn(-c3ccc(Cl)cc3)cc2O)n1` the same measures were 8.9 µM and greater than 100 µM.
For `COc1ccc2c(c1)cn1c3ccc(O)cc3[nH]c(=O)c21`, in that order: 0.236 µM and 1.09 µM.
Regarding `Oc1c(I)cc(-c2nc3ccccc3s2)cc1CN(Cc1ccccn1)Cc1ccccn1`, the GI50 was 0.531 µM and the concentration for total growth inhibition (TGI) came to 5.25 µM.
For `CCO/C=N/C1=C(C#N)C(c2ccc(F)cc2)c2sc3c(C)cccc3c2O1` (configuration not stated), in that order: 0.504 µM and 17.1 µM.
For `CS(=O)(=O)CCn1c(=O)c(Oc2ccc(F)cc2F)cc2cnc(NC3CCOCC3)nc21` the same measures were greater than 25 µM and greater than 25 µM.
For the compound `Cc1cccc2c1O/C(=C\c1ccc([N+](=O)[O-])o1)C2=O`, the GI50 was 1.29 µM and the TGI was found to be 2.99 µM.
For `C/C1=C/C(=O)O[C@@H]2C[C@@H](CC[C@H](C)/C=C\C=C\CC1)O[C@@](OCCc1ccccc1)([C@@H]1CSC(=O)N1)C2`, in that order: 0.0292 µM and 0.135 µM.
With `CC(CN1CCN(CC(C)Nc2ccnc3cc(Cl)ccc23)CC1)Nc1ccnc2cc(Cl)ccc12` (configuration not stated), the GI50 is 2.97 µM and the concentration for total growth inhibition (TGI) came out at 9.55 µM.
For `NC(=S)N/N=C\c1nccc2c(N)cccc12` the same measures were 0.226 µM and 0.717 µM.
For `CCOC(=O)N[C@H]1CCc2c(Br)c(OC)c(OC)c(OC)c2-c2ccc(SC)c(=O)cc21`, in that order: less than 0.01 µM and 16.8 µM.
For `Nc1ccc2ccc(NS(=O)(=O)N3CCCCC3)cc2c1`, in that order: 0.194 µM and greater than 100 µM.
In the case of `[C-]#[N+][C@]12C(=O)[C@H](CCC1(C)C)C(C)(C)[C@H]1C(=O)N(C)c3cccc2c31`, the GI50 was 4.02 µM and the concentration for total growth inhibition (TGI) is greater than 100 µM.
`C[C@@H](Oc1ccc2[nH]nc(/C=C/c3cnn(CCO)c3)c2c1)c1c(Cl)cncc1Cl`: the GI50 is 1.37 µM and the total growth inhibition concentration (TGI) is 3.11 µM.
For `COc1cc(NCc2ccccc2O)c2ncccc2c1` the same measures were 15.4 µM and 50.4 µM.
For `CCN(CC)CCOc1ccc2c(c1)C(=O)c1cc(OCCN(CC)CC)ccc1-2`, in that order: 2.64 µM and 8.53 µM.
For `O=C(CNc1ncco1)Nc1ccc(S(=O)(=O)c2ccc(NC(=O)CNc3ncco3)cc2)cc1` the same measures were 1.44 µM and 3.16 µM.
For the compound `COc1cc(C2=NN(c3ccc(S(N)(=O)=O)cc3)C(c3ccc(Cl)cc3)C2)cc(OC)c1OC` (configuration not stated), the GI50 was 2.88 µM and the total growth inhibition concentration (TGI) is greater than 100 µM.
For `CCCCCCNc1nc(N2CCOCC2)c2[nH]c(NCCCCCC)nc2n1` the same measures were 1.38 µM and 2.7 µM.
For `COc1ccc(CC(NC(=O)[C@H](C)NC(=O)CN2CCOCC2)C(=O)N[C@@H](Cc2ccccc2)C(=O)[C@@]2(C)CO2)cc1` (some centres not stated), in that order: 0.174 µM and 0.595 µM.
For `CN(C)CCCOc1c2ccccc2nc2c1oc1ccc(Cl)cc12` the same measures were 2.95 µM and 8.8 µM.

The term GI50 denotes the concentration giving 50% growth inhibition. Broadly, the TGI is the concentration giving total growth inhibition. Lower therefore signals greater sensitivity of the cells.
